The values that follow come from patent US8168596B2, “Use of cycloartane compounds for treating arthritis” (NuLiv Holding Inc., priority 2008, dated 2012).

One data set concerns SW1353 cells. The experiment in a line: Cell viability assay (Cell Counting Kit 8). The following applies: AS4 0.01-20 μM. It is filed as cell-based, human. The procedure:
The culture medium was replaced every other day. After confluence, the cells were subcultured following trypsinization. For subcultures, cells were harvested after brief treatment with 0.1% trypsin/ethylenediaminetetraacetic acid (EDTA) solution and seeded at a dilution of 1:10. Cells between passages 12 and 45 were used for studies.
Then SW1353 cells were treated with astragaloside IV (AS4) at a concentration of 0.01 μM, 0.1 μM, 1 μM, 2 μM, 5 μM, 10 μM or 20 μM, followed by incubating for 24 hours or 48 hours. Later, the SW1353 cell culture in each well was treated with 10 μl Cell Counting Kit 8 solution (Dojindo molecular technologies, Gaithersburg, Md., USA), followed by incubation at 37° C. in a humidified incubator with 5% CO2 for 1-4 hours. Then, the absorbance of the SW1353 cell cultures was detected by an EIA reader at 450 nm. Compared with that of the control group, the viability of the experimental groups was analyzed.

Another data set has as its system MMP-9. Put plainly: Zymography of MMP-9 from pre-treated SW1353 cells. It is filed as cell-based, human. The following applies: PMA-pre-treated SW1353; 0.1 μM, 24 h. Here is the method: (§1) At the beginning of the experiment, the cells were pre-treated with 100 ng/mL PMA or 10 ng/mL IL-1β for 24 hours. The cells were then treated with 0.1 μM Dexamethasone, various astragaloside compounds (0.1 μM) or extracts of Astragalus membranaceous (1 μg/mL) at indicated dosages for another 24 hours. For control sample, 0.1% DMSO was used as a negative control for these experiments. The conditioned culture mediums were then centrifuged, 2-fold concentrated and collected for assay of collagens or MMPs secreted into the culture medium.
(§2) The proteolytic activities of MMPs from SW1353 cells were measured essentially as described previously (Circ Res, 1999; 85:906-911). The cells were lysed in lysis buffer (1% Triton X-100, 50 mM Tris-Cl, pH 7.4, 180 mM NaCl, 1 mM EDTA). The samples were measured for their protein concentration using the bicinchoninic acid (BCA) protein assay kit as described. Samples of concentrated conditioned medium and cell lysates were mixed with non-reducing electrophoresis loading buffer and subjected to electrophoresis under non-reducing conditions. The electrophoresis was carried out on a 10% SDS-PAGE co-polymerized with 2 mg/mL gelatin or casein (Sigma, St. Louis, Mo. USA). For zymographic analysis of pro-MMP-2 and activated MMP-2, the total 20 μg of culture medium were used for electrophoresis. Following electrophoresis, renaturation of the proteins was achieved by incubating the gels twice in 25 g/L Triton X-100 at room temperature for 10 min. Subsequently the gels were incubated in 50 mM Tris-HCl, pH 7.5 containing 0.2 M NaCl, 0.02% Brij35 and 10 mM CaCl2 at 37° C. for 18 hours. After the gels were stained with Coomassie Brilliant Blue R-250 and destained, zones of proteolytic activities became visible as transparent bands in the stained gel. In order to obtain higher sensitivity, the gels were further destained in a solution of 1% Triton X-100 (1 to 2 hours). This procedure increased the signal-to-noise ratio, allowing the visualization of faint gelatinase bands at 92 kDa, 125 kDa and greater than 200 kDa. Zymograms were read using a Molecular Dynamics (Sunnyvale, Calif., USA) computing laser densitometer with Image Quant software.

A further data set has as its system MMP1. The experiment in a line: Western blotting of MMP1 protein expression induced by PMA in SW1353 cells (Example 2). It is filed as cell-based, human. The following applies: for level of MMP1 protein expression (group without AS4 treatment set as 1): then PMA 100 ng/mL 24 h, culture medium. The procedure:
Alternatively, the control group was treated with 0.1% dimethyl sulfoxide (DMSO). Phorbol myristate acetate (PMA; Sigma, St. Louis, Mo.) at a concentration of 100 ng/mL was then added into each well and the cells were incubated for 24 hours. The culture medium was collected for western blotting analysis.
Western blotting analysis was carried out based on the following procedure. Cells were washed and lysed in 0.2 mL of lysis buffer (1% NP-40, 50 mM Tris-HCl, pH 7.4, 180 mM NaCl, 1 mM EDTA, 1 mM PMSF, 1 mM NaF, 10 mM Na3VO4) for 30 min at 4° C. After centrifugation at 17500 g for 15 min, the supernatants of cell lysate were collected. Protein concentrations of the samples were measured using the bicinchoninic acid (BCA) protein assay kit according to the manufacturer's protocol (Pierce, Rockford, Ill., USA). Equal amounts of protein samples of concentrated conditioned medium (100 μg) or cell lysate supernatants (50 μg) were mixed with an appropriate volume of 4×SDS sampling buffer and separated on a 8% SDS-PAGE gel. The protein bands separated on the SDS-PAGE gel were blotted onto a polyvinylidene fluoride (PVDF) membrane. The blotted PVDF membrane was washed twice and blocked in freshly prepared Tris-buffered saline (TBS) containing 0.1% Tween-20 and 7% skim milk (TBST) for 2 hours at room temperature. The PVDF membrane was then incubated with a primary antibody against MMP1 protein (Santa Cruz Biotechnology, Santa Cruz, Calif.) for 18 hours at 4° C. Horseradish peroxidase-conjugated anti-goat antibody was used as the secondary antibody. Signals were visualized by an enhanced chemiluminescence kit (Clonetech, Palo Alto, Calif., USA) followed by exposure to X-ray films.
In another testing, the SW1353 cells were treated with 0.1 μM astragaloside IV (AS4), followed by incubation for 24 hours. PMA at a concentration of 100 ng/mL was then added into each well. The culture medium was collected after 6, 12, 18 and 24 hours of PMA treatment for western blotting analysis.

A further data set relates to MMP-13. The experiment in a line: Western blot of MMP-13 in pre-treated human chondrocytes (HCHs). It is filed as cell-based. Particulars: IL-1β-pre-treated HCH culture medium; compounds 0.1 μM, 48 h.
The subject of another data set is MMP-2. Put plainly: Zymography of MMP-2 from pre-treated SW1353 cells. The class given is cell-based, human. The following applies: PMA-pre-treated SW1353; 0.1 μM, 24 h. The procedure:
as §1, §2

The test system of another data set is Type II Collagen. Put plainly: Western blot of Type II Collagen in pre-treated human chondrocytes (HCHs). Particulars: IL-1β-pre-treated HCH culture medium; compounds 0.1 μM, 48 h. It is filed as cell-based.
The test system of data set [1] is ERK1 (P44) and ERK2 (P42). Put plainly: Western blotting of ERK1/ERK2 in PMA-treated SW1353 cells. The following applies: PMA 100 ng/mL 2 h, then 1 μM AS4 24 h; value without AS4 2.7. It is filed as cell-based, human.

Consider `CC(C)(O)[C@@H]1CC[C@](C)([C@H]2[C@@H](O)C[C@@]3(C)[C@@H]4C[C@H](O[C@@H]5O[C@H](CO)[C@@H](O)[C@H](O)[C@H]5O)[C@H]5C(C)(C)[C@@H](O[C@@H]6OC[C@@H](O)[C@H](O)[C@H]6O)CC[C@@]56C[C@@]46CC[C@]23C)O1` [AS4, Astragaloside IV], for which the “toxicity to SW1353 cells” value in the data set with SW1353 cells (24 or 48 hours) is “non-toxic”. Besides, the “cell proliferation compared with control group” value in the data set with SW1353 cells (24 hours) and in the data set with SW1353 cells (48 hours) was “did not change significantly” each time. Further, the “MMP-9, Zymography, relative to Ctrl 1.00” value in the data set on MMP-9 is on record as 1.04. Further, the “level of MMP1 protein expression (group without AS4 treatment set as 1)” value stood at 0.77 in the data set with MMP1 (AS4 0.01 μM 24 h), 0.64 in the data set with MMP1 (AS4 0.1 μM 24 h) and 0.55 in the data set with MMP1 (AS4 1 μM 24 h). Further, in the data set on MMP1 (AS4 0.1 μM 24 h, then PMA 100 ng/mL, 6, 12, 18 and 24 hours), the “level of expression of MMP1 protein at different time points, compared with only PMA treatment” value is recorded as “inhibited”. The “MMP-13, Western blot, relative to Ctrl 1.00” value with MMP-13 is listed as 0.55. For the same compound, the “MMP-2, Zymography, relative to Ctrl 1.00” value in the data set on MMP-2 was 1.01. Besides, in the data set on Type II Collagen, the “Type II Collagen, Western blot, relative to Ctrl 1.00” value is reported as 1.16. Further, the “value of expression of ERK1 (P44) and ERK2 (P42)” value in data set [1] is reported as 1.7.
